The structures appear in SMILES notation.

For orientation: IC50 means the point on the concentration scale where inhibition reaches its midpoint. Low values mean greater potency, high ones weaker potency.

The target of the test is LSD-1 enzyme (Homo sapiens (Human), UniProt O60341). The test is described as follows: LANCE LSD1/KDM1A demethylase assay (LSD1 histone demethylase biochemical assay). Conditions: 1 nM LSD-1 enzyme, 1 hour preincubation at 25° C., Biotin-labeled Histone H3 peptide substrate. How it is done:
Example A: LSD1 Histone Demethylase Biochemical Assay
LANCE LSD1/KDM1A demethylase assay—10 μL of 1 nM LSD-1 enzyme (ENZO BML-SE544-0050) in the assay buffer (50 mM Tris, pH 7.5, 0.01% Tween-20, 25 mM NaCl, 5 mM DTT) were preincubated for 1 hour at 25° C. with 0.8 μL compound/DMSO dotted in black 384 well polystyrene plates. […] Reactions were stopped by addition of 10 μL 1×LANCE Detection Buffer (PerkinElmer CR97-100) supplemented with 1.5 nM Eu-anti-unmodified H3K4 Antibody (PerkinElmer TRF0404), and 225 nM LANCE Ultra Streptavidin (PerkinElmer TRF102) along with 0.9 mM Tranylcypromine-HCl (Millipore 616431). After stopping the reactions plates were incubated for 30 minutes and read on a PHERAstar FS plate reader (BMG Labtech).
(Time-resolved FRET reads energy transfer from a long-lived donor to a nearby acceptor.)
Take `CN1CCC[C@@H](COc2nc(-c3ccc(C#N)cc3)c(-c3cnc4c(cnn4C)c3)c3nccn23)C1` [Example 28, 4-[5-{[(3R)-1-methylpiperidin-3-yl]methoxy}-8-(1-methyl-1H-pyrazolo[3,4-b]pyridin-5-yl)imidazo [1,2-c]pyrimidin-7-yl]benzonitrile]: the IC50 was ≤ 50 nM.

Consider `CCN1CCC[C@@H](COc2nc(-c3ccc(C#N)cc3)c(-c3cnc4c(cnn4C)c3)c3nccn23)C1` [Example 29, 4-[5-{[(3R)-1-ethylpiperidin-3-yl]methoxy}-8-(1-methyl-1H-pyrazolo[3,4-b]pyridin-5-yl)imidazo[1,2-c]pyrimidin-7-yl]benzonitrile], for which the IC50 was ≤ 50 nM.

Turning to `Cc1cc(-c2c(-c3ccc(C#N)cc3)nc(OC[C@@H]3CCCN(C)C3)n3ccnc23)cc(F)c1CO` [Example 30, 4-(8-[3-fluoro-4-(hydroxymethyl)-5-methylphenyl]-5-{[(3R)-1-methylpiperidin-3-yl]methoxy}imidazo[1,2-c]pyrimidin-7-yl)benzonitrile], the IC50 was ≤ 50 nM.

Take `CN1CCC[C@@H](COc2nc(-c3ccc(C#N)cc3)c(-c3ccc(CO)c(F)c3)c3nccn23)C1` [Example 31, 4-(8-[3-fluoro-4-(hydroxymethyl)phenyl]-5-{[(3R)-1-methylpiperidin-3-yl]methoxy}imidazo[1,2-c]pyrimidin-7-yl)benzonitrile]: the IC50 is ≤ 50 nM.

Turning to `CN1CCC[C@@H](COc2nc(-c3ccc(C#N)cc3)c(-c3cc(F)c(CO)c(F)c3)c3nccn23)C1` [Example 32, 4-(8-[3,5-difluoro-4-(hydroxymethyl)phenyl]-5-{[(3R)-1-methylpiperidin-3-yl]methoxy}imidazo[1,2-c]pyrimidin-7-yl)benzonitrile], the IC50 was ≤ 50 nM.

With `Cn1ncc2cc(-c3c(-c4ccc(C#N)cc4)nc(OC[C@@H]4CCCN(CCC#N)C4)n4ccnc34)cnc21` [Example 33, 4-[5-{[(3R)-1-(2-cyanoethyl)piperidin-3-yl]methoxy}-8-(1-methyl-1H-pyrazolo[3,4-b]pyridin-5-yl)imidazo[1,2-c]pyrimidin-7-yl]benzonitrile], the IC50 is ≤ 50 nM.

Consider `Cn1ncc2cc(-c3c(-c4ccc(C#N)cc4)nc(OC[C@@H]4CCCN(CCO)C4)n4ccnc34)cnc21` [Example 34, 4-[5-{[(3R)-1-(2-hydroxyethyl)piperidin-3-yl]methoxy}-8-(1-methyl-1H-pyrazolo[3,4-b]pyridin-5-yl)imidazo[1,2-c]pyrimidin-7-yl]benzonitrile], for which the IC50 is ≤ 50 nM.

With `Cc1cc(-c2c(-c3ccc(C#N)cc3)nc(OC[C@@H]3CCCN(C)C3)n3ccnc23)ccc1CO` [Example 35, 4-(8-[4-(hydroxymethyl)-3-methylphenyl]-5-{[(3R)-1-methylpiperidin-3-yl]methoxy}imidazo[1,2-c]pyrimidin-7-yl)benzonitrile], the IC50 is ≤ 50 nM.

As for `CN1CCC[C@@H](COc2nc(-c3ccc(C#N)cc3)c(-c3ccc(CO)cc3)c3nccn23)C1` [Example 36, 4-(8-[4-(hydroxymethyl)phenyl]-5-{[(3R)-1-methylpiperidin-3-yl]methoxy}imidazo[1,2-c]pyrimidin-7-yl)benzonitrile], the IC50 is ≤ 50 nM.

Turning to `CN(C)C1CCN(c2nc(-c3ccc(C#N)cc3)c(-c3cnc4c(cnn4C)c3)c3nccn23)CC1` [Example 37, 4-[5-[4-(dimethylamino)piperidin-1-yl]-8-(1-methyl-1H-pyrazolo[3,4-b]pyridin-5-yl)imidazo[1,2-c]pyrimidin-7-yl]benzonitrile], the 50% inhibitory concentration (IC50) was ≤ 50 nM.

For `CN(C)[C@@H]1CCN(c2nc(-c3ccc(C#N)cc3)c(-c3cnc4c(cnn4C)c3)c3nccn23)C1` [Example 38, 4-[5-[(3R)-3-(dimethylamino)pyrrolidin-1-yl]-8-(1-methyl-1H-pyrazolo[3,4-b]pyridin-5-yl)imidazo[1,2-c]pyrimidin-7-yl]benzonitrile], the IC50 was ≤ 50 nM.

On to `CN1CCC2(CCN(c3nc(-c4ccc(C#N)cc4)c(-c4cnc5c(cnn5C)c4)c4nccn34)C2)C1` (stereo not drawn) [Example 39, 4-[5-(7-methyl-2,7-diazaspiro[4.4]non-2-yl)-8-(1-methyl-1H-pyrazolo[3,4-b]pyridin-5-yl)imidazo[1,2-c]pyrimidin-7-yl]benzonitrile], for which the IC50 was ≤ 50 nM.

In the case of `COC(=O)N(C)Cc1ccc(-c2c(-c3ccc(C#N)cc3)nc(OC[C@@H]3CCCN(C)C3)n3ccnc23)cc1F` [Example 40, methyl[4-(7-(4-cyanophenyl)-5-{[(3R)-1-methylpiperidin-3-yl]methoxy}imidazo[1,2-c]pyrimidin-8-yl)-2-fluorobenzyl]methylcarbamate], the half-maximal inhibitory concentration (IC50) was ≤ 50 nM.

As to `COCCN1CCC[C@@H](COc2nc(-c3ccc(C#N)cc3)c(-c3cnc4c(cnn4C)c3)c3nccn23)C1` [Example 41, 4-[5-{[(3R)-1-(2-methoxyethyl)piperidin-3-yl]methoxy}-8-(1-methyl-1H-pyrazolo[3,4-b]pyridin-5-yl)imidazo[1,2-c]pyrimidin-7-yl]benzonitrile], the IC50 is ≤ 50 nM.

Take `CN1CCC[C@@H](COc2nc(-c3ccc(C#N)cc3)c(-c3ccc4c(c3)c(N)nn4C)c3nccn23)C1` [Example 42, 4-(8-(3-amino-1-methyl-1H-indazol-5-yl)-5-{[(3R)-1-methylpiperidin-3-yl]methoxy}imidazo[1,2-c]pyrimidin-7-yl)benzonitrile]: the IC50 is ≤ 50 nM.

`CN1CCC[C@@H](COc2nc(-c3ccc(C#N)cc3)c(-c3ccc4c(c3)OC(=O)N(C)C4)c3nccn23)C1` [Example 43, 4-(8-(3-methyl-2-oxo-3,4-dihydro-2H-1,3-benzoxazin-7-yl)-5-{[(3R)-1-methylpiperidin-3-yl]methoxy}imidazo[1,2-c]pyrimidin-7-yl)benzonitrile]: the half-inhibitory concentration (IC50) was ≤ 50 nM.

With `CN1CCC[C@@H](COc2nc(-c3ccc(C#N)cc3)c(-c3ccc4c(c3)n(C)c(=O)n4C)c3nccn23)C1` [Example 44, 4-(8-(1,3-dimethyl-2-oxo-2,3-dihydro-1H-benzimidazol-5-yl)-5-{[(3R)-1-methylpiperidin-3-yl]methoxy}imidazo[1,2-c]pyrimidin-7-yl)benzonitrile], the IC50 lay within 50 to 500 nM.

For the molecule `CN1CCC[C@@H](COc2nc(-c3ccc(C#N)cc3)c(-c3cc4oc(=O)n(C)c4cc3F)c3nccn23)C1` [Example 45, 4-(8-(5-fluoro-3-methyl-2-oxo-2,3-dihydro-1,3-benzoxazol-6-yl)-5-{[(3R)-1-methylpiperidin-3-yl]methoxy}imidazo[1,2-c]pyrimidin-7-yl)benzonitrile], the IC50 is ≤ 50 nM.

As for `CN(C)C1CCN(c2nc(-c3ccc(C#N)cc3)c(-c3ccc4c(cnn4C)c3)c3nccn23)CC1` [Example 46, 4-[5-[4-(dimethylamino)piperidin-1-yl]-8-(1-methyl-1H-indazol-5-yl)imidazo[1,2-c]pyrimidin-7-yl]benzonitrile], the half-maximal inhibitory concentration (IC50) was ≤ 50 nM.

In the case of `CN(C)C1CCN(c2nc(-c3ccc(C#N)cc3)c(-c3ccc4c(c3)oc(=O)n4C)c3nccn23)CC1` [Example 47, 4-[5-[4-(dimethylamino)piperidin-1-yl]-8-(3-methyl-2-oxo-2,3-dihydro-1,3-benzoxazol-6-yl)imidazo[1,2-c]pyrimidin-7-yl]benzonitrile], the IC50 was ≤ 50 nM.

Take `COc1ccc(-c2c(-c3ccc(C#N)cc3)nc(N3CCC(N(C)C)CC3)n3ccnc23)cn1` [Example 48, 4-[5-[4-(dimethylamino)piperidin-1-yl]-8-(6-methoxypyridin-3-yl)imidazo[1,2-c]pyrimidin-7-yl]benzonitrile]: the IC50 fell in the range of 50 to 500 nM.

These data come from patent US9944647B2 (Incyte Corporation, priority 2015, dated 2018).
